# Laboratory results published in ChEMBL document CHEMBL3352318, “MDN-0104, an antiplasmodial betaine lipid from Heterospora chenopodii” (J Nat Prod, 2014).
# pIC50: −log10 of the molar value.
# Tested on: Plasmodium falciparum
# Test: Antiplasmodial activity against Plasmodium falciparum 3D7 late ring stages and early trophozoites forms infected in human erythrocytes assessed as parasite growth inhibition by LDH release assay
# Type: functional, organism-based
structure (smiles),measurement,value
CCCCCCCCCCC/C=C(\C)C(=O)C(C)(C)C(=O)OC[C@@H](O)COCC[C@@H](C(=O)[O-])[N+](C)(C)C,pIC50,5.15
